The IC50 is the concentration needed to halve the response being measured. Low values mean inhibition by little substance, high ones a need for much substance.

Where only a bound is given, the exact number is not on record here.

The subject of this test is A549 human lung cancer cells. The experiment in a line: Measurement of PGE2 in IL-1β-treated A549 human lung cancer cells. The test is classed as cell-based. The conditions noted are these: PGE2 production, A549 cell, IL-1β 1 ng/mL, 48 hours. The method, then: Samples at various concentrations were added at 24 hours after A549 human lung cancer cells were seeded. After 1 hour, IL-1β of 1 ng/mL was added. The cells were cultured for 48 hours and then the culture supernatant was collected. PGE2 of the collected supernatant was measured according to the manufacturer's instructions using a PGE2 EIA kit.
Compound `CC(C)C(=O)NCc1ccc(Cl)c(C(=O)Nc2ccc3c(c2)cc(C(=O)Nc2ccc(F)cc2)n3C)c1` [Compound 2, 5-(2-chloro-5-(isobutyramidomethyl)benzamido)-N-(4-fluorophenyl)-1-methyl-1H-indole-2-carboxamide] registered an IC50 of 237 nM. That is a sub-micromolar value.

Take `CC(C)C(=O)NCc1ccc(Cl)c(C(=O)Nc2ccc3c(c2)cc(C(=O)NCc2ccccc2C(F)(F)F)n3CC(F)(F)F)c1` [Compound 63, 5-(2-chloro-5-(isobutyramidomethyl)benzamido)-1-(2,2,2-trifluoroethyl)-N-(2-(trifluoromethyl)benzyl)-1H-indole-2-carboxamide]: half-maximal inhibition (IC50) was put at 14.8 nM. The figure for `CC(C)C(=O)NCc1ccc(Cl)c(C(=O)Nc2ccc3c(c2)cc(C(=O)NCc2ccc(Cl)cc2)n3C)c1` [Compound 49, 5-(2-chloro-5-(isobutyramidomethyl)benzamido)-N-(4-chlorobenzyl)-1-methyl-1H-indole-2-carboxamide] is 9.75 nM.

`Cc1cc(F)ccc1NC(=O)c1cc2cc(NC(=O)c3cc(CNC(=O)C(C)C)ccc3Cl)ccc2n1C` [Compound 23, 5-(2-chloro-5-(isobutyramidomethyl)benzamido)-N-(4-fluoro-2-methylphenyl)-1-methyl-1H-indole-2-carboxamide] returned an IC50 of 45 nM. Then `CC(C)C(=O)NCc1ccc(Cl)c(C(=O)Nc2ccc3c(c2)cc(C(=O)Nc2cc(F)cc(C(F)(F)F)c2)n3C)c1` [Compound 17, 5-(2-chloro-5-(isobutyramidomethyl)benzamido)-N-(3-fluoro-5-(trifluoromethyl)phenyl)-1-methyl-1H-indole-2-carboxamide], with 88.1 nM; and `CC(C)C(=O)NCc1ccc(Cl)c(C(=O)Nc2ccc3c(c2)cc(C(=O)NCc2ccc(F)cc2)n3CC(F)(F)F)c1` [Compound 68, 5-(2-chloro-5-(isobutyramidomethyl)benzamido)-N-(4-fluorobenzyl)-1-(2,2,2-trifluoroethyl)-1H-indole-2-carboxamide], with 8.52 nM; and `Cc1cc(Cl)ccc1NC(=O)c1cc2cc(NC(=O)c3cc(CNC(=O)C(C)C)ccc3Cl)ccc2n1C` [Compound 22, N-(4-chloro-2-methylphenyl)-5-(2-chloro-5-(isobutyramidomethyl)benzamido)-1-methyl-1H-indole-2-carboxamide], with 27.4 nM. The compound `CC(C)C(=O)NCc1ccc(Cl)c(C(=O)Nc2ccc3c(c2)cc(C(=O)Nc2cccc(F)c2)n3C)c1` [Compound 1, 5-(2-chloro-5-(isobutyramidomethyl)benzamido)-N-(3-fluorophenyl)-1-methyl-1H-indole-2-carboxamide] displayed an IC50 of 277 nM.

Turning to `CC(C)C(=O)NCc1ccc(Cl)c(C(=O)Nc2ccc3c(c2)cc(C(=O)NCc2ccc(C(F)(F)F)cc2)n3C)c1` [Compound 34, 5-(2-chloro-5-(isobutyramidomethyl)benzamido)-1-methyl-N-(4-(trifluoromethyl)benzyl)-1H-indole-2-carboxamide], the IC50 was 7.9 nM. The figure for `CC(C)C(=O)NCc1ccc(Cl)c(C(=O)Nc2ccc3c(c2)cc(C(=O)N[C@H](C)c2ccc(OC(F)(F)F)cc2)n3C)c1` [Compound 59, (R)-5-(2-chloro-5-(isobutyramidomethyl)benzamido)-1-methyl-N-(1-(4-(trifluoromethoxy)phenyl)ethyl)-1H-indole-2-carboxamide] is 9.5 nM; for `CC(C)C(=O)NCc1ccc(Cl)c(C(=O)Nc2ccc3c(c2)cc(C(=O)NCc2ccc(C(C)(C)C)cc2)n3CC(F)(F)F)c1` [Compound 62, N-(4-(tert-butyl)benzyl)-5-(2-chloro-5-(isobutyramidomethyl)benzamido)-1-(2,2,2-trifluoroethyl)-1H-indole-2-carboxamide] it is 27.5 nM; for `CC(C)C(=O)NCc1ccc(Cl)c(C(=O)Nc2ccc3c(c2)cc(C(=O)NCc2ccc(C(C)(C)C)cc2)n3C)c1` [Compound 33, N-(4-(tert-butyl)benzyl)-5-(2-chloro-5-(isobutyramidomethyl)benzamido)-1-methyl-1H-indole-2-carboxamide] it is 9.59 nM. Compound `CC(C)C(=O)NCc1ccc(Cl)c(C(=O)Nc2ccc3c(c2)cc(C(=O)NCc2ccc(OC(F)(F)F)cc2)n3CC(F)(F)F)c1` [Compound 72, 5-(2-chloro-5-(isobutyramidomethyl)benzamido)-1-(2,2,2-trifluoroethyl)-N-(4-(trifluoromethoxy)Benzyl)-1H-indole-2-carboxamide] returned an IC50 of 9.38 nM. The figure for `CC(C)C(=O)NCc1ccc(Cl)c(C(=O)Nc2ccc3c(c2)cc(C(=O)NCc2ccc(F)cc2)n3C)c1` [Compound 32, 5-(2-chloro-5-(isobutyramidomethyl)benzamido)-N-(4-fluorobenzyl)-1-methyl-1H-indole-2-carboxamide] is 9.62 nM; for `CC(C)C(=O)NCc1ccc(Cl)c(C(=O)Nc2ccc3c(c2)cc(C(=O)Nc2ccc(C(F)(F)F)cc2)n3C)c1` [Compound 8, 5-(2-chloro-5-(isobutyramidomethyl)benzamido)-1-methyl-N-(4-(trifluoromethyl)phenyl)-1H-indole-2-carboxamide] it is 5.22 nM. Regarding `CC(C)C(=O)NCc1ccc(Cl)c(C(=O)Nc2ccc3c(c2)cc(C(=O)N2CCN(c4ncccn4)CC2)n3C)c1` [Compound 21, 2-chloro-5-(isobutyramidomethyl)-N-(1-methyl-2-(4-(pyrimidin-2-yl)piperazin-1-carbonyl)-1H-indole-5-yl)benzamide], the IC50 is more than 100 nM. Then `CC(C)C(=O)NCc1ccc(Cl)c(C(=O)Nc2ccc3c(c2)cc(C(=O)N[C@@H](C)c2ccc(C(F)(F)F)cc2)n3C)c1` [Compound 60, (S)-5-(2-chloro-5-(isobutyramidomethyl)benzamido)-1-methyl-N-(1-(4-(trifluoromethyl)phenyl)ethyl)-1H-indole-2-carboxamide], with 30.3 nM.

For `CC(C)C(=O)NCc1ccc(Cl)c(C(=O)Nc2ccc3[nH]c(C(=O)Nc4ccc(C(F)(F)F)cc4)cc3c2)c1` [Compound 75, 5-(2-chloro-5-(isobutyramidomethyl)benzamido)-N-(4-(trifluoromethyl)phenyl)-1H-indole-2-carboxamide], the IC50 amounted to 6.49 nM. This IC50 is about 4.7-fold lower than that of the compound before.

`CC(C)C(=O)NCc1ccc(Cl)c(C(=O)Nc2ccc3c(c2)cc(C(=O)NCc2cccc(C(F)(F)F)c2)n3CC(F)(F)F)c1` [Compound 70, 5-(2-chloro-5-(isobutyramidomethyl)benzamido)-1-(2,2,2-trifluoroethyl)-N-(3-(trifluoromethyl)benzyl)-1H-indole-2-carboxamide] displayed an IC50 of 9.65 nM. Take `CC(C)C(=O)NCc1ccc(Cl)c(C(=O)Nc2ccc3c(c2)cc(C(=O)Nc2ccc(C(F)(F)F)nc2)n3C)c1` [Compound 18, 5-(2-chloro-5-(isobutyramidomethyl)benzamido)-1-methyl-N-(6-(trifluoromethyl)pyridin-3-yl)-1H-indole-2-carboxamide]: 60 nM corresponded to half-maximal inhibition (IC50). This IC50 lies about 6.2-fold higher than the previous one. Consider `CC(C)C(=O)NCc1ccc(Cl)c(C(=O)Nc2ccc3c(c2)cc(C(=O)NC(C)c2ccc(C(F)(F)F)cc2)n3C)c1` (stereo not drawn) [Compound 47, 5-(2-chloro-5-(isobutyramidomethyl)benzamido)-1-methyl-N-(1-(4-(trifluoromethyl)phenyl)ethyl)-1H-indole-2-carboxamide], for which half-maximal inhibition (IC50) was put at 5.82 nM.
